Earlier results, collected in patent US9694043B2, “Composition for preventing or treating hearing loss” (UNIVERSITY-INDUSTRY COOPERATION GROUP OF KYUNG HEE …, priority 2011, dated 2017).

How the values were obtained:
soldiers = settings: 600 U.S. navy soldiers, NAC for 2 weeks during weapons training
animal model = settings: high level of NAC

CC(=O)N[C@@H](CS)C(=O)O [NAC, N-acetyl cysteine]
Permanent hearing loss (soldiers): decrease in permanent hearing loss
Effect on noise-induced hearing loss in animal model (animal model): preventive effects on noise-induced hearing loss but limited effects on permanent hearing loss
